Tests used:
[1] = target: T1, TcK2 (T. cruzi eIF2α kinase 2, PERK homologue); test: LANCE TR-FRET kinase assay with p70S6K peptide; DSF ΔTm […] °C; knockout parasites less sensitive; assay type: biochemical, Trypanosoma cruzi
T1 construct: gene TcYC6_0089220; kinase domain KD5 (S659-I976)

[2] = target: T1, TcK2 (T. cruzi eIF2α kinase 2, PERK homologue); test: LANCE TR-FRET kinase assay with p70S6K peptide; DSF ΔTm […] °C; assay type: biochemical, Trypanosoma cruzi

| Structure (SMILES) | IC50 [1] [nM] | IC50 [2] [nM] |
| --- | --- | --- |
| Cc1nc(Nc2ncc(C(=O)Nc3c(C)cccc3Cl)s2)cc(N2CCN(CCO)CC2)n1 [Dasatinib] | 190 ± 20 | – |
| Cn1cc(-c2[nH]c3cc(NC(=O)[C@H](N)C4CCCCC4)cc4c3c2C=NNC4=O)cn1 [PF-477736] | – | 670 ± 20 |
